Measurements taken from US10750729B2, “Pig for atrioventricular block model, monkey for atrioventricular block model, guinea pig for atrioventricular block model, and use thereof” (Toho University, priority 2012, dated 2020).

Key:
rat = conditions: cited from earlier work
Guinea pigs (Hartley) = experiment: Test Example 3-2: electrocardiogram and aortic pressure of halothane-anesthetized guinea pigs (BAF312); assay type: in vivo; conditions: guinea pig
Description: Guinea pigs (Hartley, body weight: 420 g to 650 g, male, obtained from Japan SLC, Inc.) were each anesthetized by intraperitoneally administering thereto sodium thiopental (product of Mitsubishi Tanabe Pharma Corporation) at 50 mg/kg. Next, a tracheal cannula was inserted into each of the guinea pigs. While their body temperature was being maintained at 37° C. with a warming pad, the guinea pigs were allowed to inhale 100% by volume oxygen and 1% by volume vaporized halothane (product of Takeda Pharmaceutical Company Limited.) using an artificial respirator for experimental animals (SN-480-7; product of shimano Co., Ltd.). Here, the artificial respirator for experimental animals was set to a tidal volume of 10 mL/kg and a respiration rate of 60 strokes/min. Next, a cannula for drug administration was inserted to their left femoral vein. In addition, a heparinized catheter for monitoring the blood pressure was inserted to the aorta through the left femoral […]. Then, ECG standard limb II leads was continuously recorded.
Each of the guinea pigs (n=12) of Example 3 was recorded for an electrocardiogram before administration of a drug or a solvent.
BAF312 (product of Meiji Seika Pharma Co., Ltd.) was dissolved in dimethyl sulfoxide (hereinafter may be referred to as “DMSO”; product of Sigma-Aldrich Inc.) so as to have a concentration of 0.003 mg/mL.
(§1) After the evaluation of base control, the cannula for drug administration was inserted, and the above-prepared BAF312 solution was intravenously administered to each of the guinea pigs (n=4) of Example 3 for 10 min at a dose of 0.001 mg/kg. These guinea pigs were evaluated for parameters by the following evaluation methods at 5 min, 10 min, 15 min, 20 min, 30 min, 45 min or 60 min after the administration of the BAF312 solution.
BAF312 (product of Meiji Seika Pharma Co., Ltd.) was dissolved in DMSO (product of Sigma-Aldrich Inc.) so as to have a concentration of 0.03 mg/mL.
as §1, with “0.01” for “0.001”
The aortic pressure and the electrocardiogram were monitored using a polygraph system (RM-6000, product of NIHON KOHDEN Co. Ltd.) and analyzed with a full-automated analysis system in real time (WinVAS ver. 3, 1.1R03; product of Physio-Tech Co., Ltd).
Parameters of the electrocardiogram were measured three times, and the obtained values were averaged. Atrial rate was calculated from PP interval of the electrocardiogram. Ventricular rate was calculated from RR interval of the electrocardiogram.
The measurements in FIGS. 6A to 6E are expressed as mean±SE (n=4). The difference between the parameters was evaluated with one-way repeated measures analysis of variance (ANOVA). It was considered that p<0.05 is statistically significant. In FIG. 6A to 6C and FIG. 6E, “white circle,” “white square” and “white triangle” each mean absence of a significant difference relative to the value of the evaluation of base control (C), and “black circle” means presence of a significant difference relative to the value of the evaluation of base control (C).
Also, in FIG. 6D, “white circle” means absence of development of atrioventricular block or presence of development of first-degree atrioventricular block, “white triangle” means presence of development of advanced atrioventricular block, “x-mark” means presence of development of third-degree atrioventricular block (complete atrioventricular block), and #1 to 4 refer to each individual.

[1] = high-dose 0.01 mg/kg/10 min i.v.
[2] = low-dose 0.001 mg/kg/10 min i.v.
[3] = low-dose 0.001 mg/kg/10 min i.v., from 5 min to 60 min

Row | change in QRS width (Guinea pigs (Hartley); [1]) | change in atrial rate (Guinea pigs (Hartley); [1]) | change in PR interval (Guinea pigs (Hartley); high-dose 0.01 mg/kg/10 min i.v., before development of atrioventricular block) | change in ventricular rate (Guinea pigs (Hartley); high-dose 0.01 mg/kg/10 min i.v., from 10 min to 15 min) | individuals that developed complete atrioventricular block (Guinea pigs (Hartley); high-dose 0.01 mg/kg/10 min i.v., n=4) | change in PR interval (Guinea pigs (Hartley); [2]) | change in QRS width (Guinea pigs (Hartley); [2]) | change in atrial rate (Guinea pigs (Hartley); [3]) | change in ventricular rate (Guinea pigs (Hartley); [3]) | SMILES | prolongation of PR interval (rat) | change in QT interval (Guinea pigs (Hartley); [1]) | change in blood pressure (MBP) (Guinea pigs (Hartley); [1]) | correspondence of P wave and R wave in the electrocardiogram (Guinea pigs (Hartley); high-dose 0.01 mg/kg/10 min i.v., 45 min after start) | change in QT interval (Guinea pigs (Hartley); [2]) | change in blood pressure (MBP) (Guinea pigs (Hartley); [2])
1 |  |  |  |  |  |  |  |  |  | CCCCCCCCCCCCC/C=C/[C@@H](O)[C@@H](N)COP(=O)(O)O [sphingosine-1-phosphate] | not observed |  |  |  |  | 
2 | no significant change | no significant change | prolonged | decrease | all of the four individuals | prolongation of PR interval was observed | no significant change | decrease | decrease | CCc1cc(/C(C)=N/OCc2ccc(C3CCCCC3)c(C(F)(F)F)c2)ccc1CN1CC(C(=O)O)C1 [BAF312, siponimod] |  | no significant change | increase | the atrium and the ventricle are contracted independently of each other at their own individual rhythms | no significant change | increase
